Measurements as given in DBAASP.
≈ marks a conversion by molar mass, not a printed value. Where “and” joins values, the source holds several entries; their conditions need not be identical. Equal values may be shown once. Each block holds one compound with its values, some of them ahead of it.

How the values were obtained:
Test in all cases: ≥ marks a high value that may be exact or a test limit, other limits are often not marked, values filed in µg/mL are converted to µM
[1] = test system: Mycobacterium tuberculosis CSU87
[2] = test system: Mycobacterium tuberculosis H37Rv
[3] = test system: Acinetobacter baumannii ATCC 19606
[4] = test system: Candida albicans ATCC 90028
[5] = test system: Candida parapsilosis ATCC 22019
[6] = test system: Enterococcus faecalis ATCC 29212
[7] = test system: Escherichia coli ATCC 25922
[8] = test system: Klebsiella pneumoniae ATCC 13883
Listeria ivanovii = test system: Listeria ivanovii
[9] = test system: Pseudomonas aeruginosa ATCC 27853
Saccharomyces cerevisiae = test system: Saccharomyces cerevisiae
[10] = test system: Staphylococcus aureus ATCC 25923
[11] = test system: Staphylococcus aureus ATCC BAA-44
[12] = test system: Streptococcus pyogenes ATCC 19615
Aerococcus viridans = test system: Aerococcus viridans
Alternaria brassicicola = test system: Alternaria brassicicola
Ascochyta pisi = test system: Ascochyta pisi
Bacillus megaterium = test system: Bacillus megaterium
Bacillus subtilis = test system: Bacillus subtilis
Botrytis cinerea = test system: Botrytis cinerea
Escherichia coli D22 = test system: Escherichia coli D22
Escherichia coli D31 = test system: Escherichia coli D31
Fusarium culmorum = test system: Fusarium culmorum
Fusarium haematococcum = test system: Fusarium haematococcum
Micrococcus luteus = test system: Micrococcus luteus
Neurospora crassa = test system: Neurospora crassa
Pediococcus acidilactici = test system: Pediococcus acidilactici
Salmonella typhimurium = test system: Salmonella typhimurium
Trichoderma viride = test system: Trichoderma viride
[13] = test system: Bacillus subtilis BGSC 1A1
Klebsiella pneumoniae = test system: Klebsiella pneumoniae
[14] = test system: Mycobacterium tuberculosis mc2-6020
[15] = test system: Mycobacterium tuberculosis mc2-6230
Streptococcus agalactiae = test system: Streptococcus agalactiae
Streptococcus mutans = test system: Streptococcus mutans
[16] = test system: Streptococcus pneumoniae ATCC 49619
Streptococcus pyogenes = test system: Streptococcus pyogenes
[17] = test system: Streptococcus mutans UA159
[18] = test system: Streptococcus sanguinis ATCC 10556
[19] = test system: Streptococcus sobrinus ATCC 6715
Bacillus subtilis PS832 = test system: Bacillus subtilis PS832
Escherichia coli DL7 = test system: Escherichia coli DL7
[20] = test system: Escherichia coli MG1655 ΔrecA
Escherichia coli MG1655 = test system: Escherichia coli MG1655
[21] = test system: Klebsiella aerogenes ATCC 13048
[22] = test system: Staphylococcus epidermidis ATCC 12228

SMILES: CC(C)C[C@H](NC(=O)[C@H](CC(C)C)NC(=O)[C@H](CCCCN)NC(=O)[C@H](CCCCN)NC(=O)[C@H](CC(C)C)NC(=O)[C@H](CC(C)C)NC(=O)[C@@H](N)CS)C(=O)N[C@@H](CCCCN)C(=O)N[C@@H](CCCCN)C(N)=O [CLLKKLLKK]
- MIC [1]: ≥ 460 µM
- MIC [2]: ≥ 460 µM

SMILES: CC[C@H](C)[C@H](NC(=O)[C@H](CCCN=C(N)N)NC(=O)[C@H](CO)NC(=O)[C@H](CC(C)C)NC(=O)[C@H](Cc1ccccc1)NC(=O)[C@H](CO)NC(=O)[C@@H](N)Cc1ccccc1)C(=O)N[C@@H](Cc1ccccc1)C(N)=O [FSFLSRIF]
- MIC [3]: > 100 µM
- MIC [4]: ≥ 100 µM
- MIC [5]: ≥ 100 µM
- MIC [6]: > 100 µM
- MIC [7]: 100 µM (≈ 102 µg/mL)
- MIC [8]: ≥ 100 µM
- MIC (Listeria ivanovii): ≥ 100 µM
- MIC [9]: > 100 µM
- MIC (Saccharomyces cerevisiae): 25 µM (≈ 25.4 µg/mL)
- MIC [10]: > 100 µM
- MIC [11]: ≥ 100 µM
- MIC [12]: ≥ 50 µM

SMILES: CC[C@H](C)[C@H](NC(=O)[C@@H](NC(=O)[C@@H]1CCCN1C(=O)[C@@H](NC(=O)[C@@H]1CCCN1C(=O)[C@H](CCCCN)NC(=O)[C@H](CCCCN)NC(=O)[C@H](CO)NC(=O)CN)C(C)C)[C@@H](C)CC)C(=O)N[C@@H](Cc1ccc(O)cc1)C(=O)N[C@H]1CSSC[C@@H](C(=O)N[C@@H](CCC(N)=O)C(=O)N[C@@H](CCCN=C(N)N)C(=O)O)NC(=O)[C@H](CCCCN)NC(=O)CNC(=O)[C@H]([C@@H](C)O)NC(=O)[C@H](CCCN=C(N)N)NC(=O)[C@H](CCCN=C(N)N)NC(=O)[C@H](CC(N)=O)NC1=O [GSKKPVPIIYCNRRTGKCQR]
- MIC (Aerococcus viridans): 3.54 µM (≈ 8.14 µg/mL)
- MIC (Alternaria brassicicola): 7.07 µM (≈ 16.3 µg/mL)
- MIC (Ascochyta pisi): 14.1 µM (≈ 32.6 µg/mL)
- MIC (Bacillus megaterium): 3.54 µM (≈ 8.14 µg/mL)
- MIC (Bacillus subtilis): 28.3 µM (≈ 65.1 µg/mL)
- MIC (Botrytis cinerea): 7.07 µM (≈ 16.3 µg/mL)
- MIC (Escherichia coli D22): 28.3 µM (≈ 65.1 µg/mL)
- MIC (Escherichia coli D31): 28.3 µM (≈ 65.1 µg/mL)
- MIC (Fusarium culmorum): 14.1 µM (≈ 32.6 µg/mL)
- MIC (Fusarium haematococcum): 3.54 µM (≈ 8.14 µg/mL)
- MIC (Micrococcus luteus): 3.54 µM (≈ 8.14 µg/mL)
- MIC (Neurospora crassa): 7.07 µM (≈ 16.3 µg/mL)
- MIC (Pediococcus acidilactici): 28.3 µM (≈ 65.1 µg/mL)
- MIC (Salmonella typhimurium): 28.3 µM (≈ 65.1 µg/mL)
- MIC (Trichoderma viride): 14.1 µM (≈ 32.6 µg/mL)

SMILES: CC[C@H](C)[C@H](N)C(=O)N[C@@H](CC(C)C)C(=O)N[C@@H](CO)C(=O)N[C@@H](CC(C)C)C(=O)N[C@@H](CCCN=C(N)N)C(=O)N[C@@H](Cc1c[nH]c2ccccc12)C(=O)N[C@@H](Cc1c[nH]c2ccccc12)C(=O)N[C@@H](CCCN=C(N)N)C(=O)N[C@@H](CCCCN)C(=O)N[C@@H](Cc1c[nH]c2ccccc12)C(=O)N[C@@H](Cc1c[nH]c2ccccc12)C(=O)N[C@@H](CCCCN)C(=O)N[C@@H](CCCCN)C(=O)O [ILSLRWWRKWWKK]
- MIC [13]: 4 µM (≈ 7.55 µg/mL)
- MIC [7]: 16 µM (≈ 30.2 µg/mL)
- MIC (Klebsiella pneumoniae): 136 µM (≈ 257 µg/mL)
- MIC [14]: 16 µM (≈ 30.2 µg/mL)
- MIC [15]: ≥ 32 µM
- MIC [9]: 32 µM (≈ 60.4 µg/mL)
- MIC [10]: 32 µM (≈ 60.4 µg/mL)
- MIC (Streptococcus agalactiae): 8 µM (≈ 15.1 µg/mL)
- MIC (Streptococcus mutans): 4 µM (≈ 7.55 µg/mL)
- MIC [16]: 16 µM (≈ 30.2 µg/mL)
- MIC (Streptococcus pyogenes): 2 µM (≈ 3.77 µg/mL)

Results, then the compound that gave them:

- MIC [17]: ≥ 357 µM
- MIC [18]: ≥ 357 µM
- MIC [19]: ≥ 179 µM
SMILES: NCCCC[C@H](NC(=O)[C@H](CCCCN)NC(=O)[C@H](Cc1ccccc1)NC(=O)[C@H](Cc1ccccc1)NC(=O)[C@H](CCCCN)NC(=O)[C@H](CCCCN)NC(=O)[C@H](Cc1ccccc1)NC(=O)[C@H](Cc1ccccc1)NC(=O)[C@@H](N)CCCCN)C(=O)N[C@@H](Cc1c[nH]c2ccccc12)C(=O)O [KFFKKFFKKW]

- MIC (Bacillus subtilis PS832): 8 µM (≈ 16 µg/mL)
- MIC (Escherichia coli DL7): ≥ 32 µM and 16 µM
- MIC [20]: ≥ 32 µM
- MIC (Escherichia coli MG1655): ≥ 64 µM
- MIC [21]: ≥ 64 µM
- MIC [2]: ≥ 300 µM
- MIC [22]: 8 µM (≈ 16 µg/mL)
- MIC [16]: ≥ 300 µM
SMILES: CC(C)C[C@H](NC(=O)CNC(=O)[C@H](C)NC(=O)[C@@H](N)CCCN=C(N)N)C(=O)N[C@@H](CCC(N)=O)C(=O)N[C@@H](Cc1ccccc1)C(=O)N1CCC[C@H]1C(=O)N[C@H](C(=O)NCC(=O)N[C@@H](CCCN=C(N)N)C(=O)N[C@H](C(=O)N[C@@H](Cc1cnc[nH]1)C(=O)N[C@@H](CCCN=C(N)N)C(=O)N[C@@H](CC(C)C)C(=O)N[C@@H](CC(C)C)C(=O)N[C@@H](CCCN=C(N)N)C(=O)N[C@@H](CCCCN)C(N)=O)C(C)C)C(C)C [RAGLQFPVGRVHRLLRK]
